One compound from article PMC11957517, “Efficient production of hydroxysalidroside in Escherichia coli via enhanced glycosylation and semi-rational design of UGT85A1” (Synthetic and Systems Biotechnology, 2025) can be followed below.

One assay deals with T1, UGT33 (Rhodiola rosea, UniProt A0A2I6B3R9).
T1 construct: synthesized gene in pETDuet-1, E. coli BL21(DE3) whole cells with pCDFDuet-pgm-galU
T1 sequence (A0A2I6B3R9 1-498): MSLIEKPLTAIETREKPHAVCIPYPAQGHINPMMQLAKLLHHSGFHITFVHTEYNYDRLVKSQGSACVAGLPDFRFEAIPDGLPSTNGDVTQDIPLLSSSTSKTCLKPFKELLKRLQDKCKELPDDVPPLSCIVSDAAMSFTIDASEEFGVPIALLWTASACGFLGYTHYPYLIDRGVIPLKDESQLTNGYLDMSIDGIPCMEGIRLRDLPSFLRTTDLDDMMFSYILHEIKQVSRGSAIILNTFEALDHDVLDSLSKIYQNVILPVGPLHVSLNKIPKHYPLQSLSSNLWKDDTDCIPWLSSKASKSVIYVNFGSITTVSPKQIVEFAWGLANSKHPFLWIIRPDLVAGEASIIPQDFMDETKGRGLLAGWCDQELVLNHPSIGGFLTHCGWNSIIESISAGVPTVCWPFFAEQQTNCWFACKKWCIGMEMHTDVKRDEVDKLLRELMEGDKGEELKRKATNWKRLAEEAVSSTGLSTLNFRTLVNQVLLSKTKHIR
The assay is described as follows: whole-cell conversion in E. coli, HPLC. Conditions: intracellular UDPG, pgm and galU overexpressed, 48 h. The format is cell-based.

Another assay has as its target T2, UGT13 (Oryza sativa, UniProt Q6Z684).
T2 construct: synthesized gene in pETDuet-1, E. coli BL21(DE3) whole cells with pCDFDuet-pgm-galU
T2 sequence (Q6Z684 1-485): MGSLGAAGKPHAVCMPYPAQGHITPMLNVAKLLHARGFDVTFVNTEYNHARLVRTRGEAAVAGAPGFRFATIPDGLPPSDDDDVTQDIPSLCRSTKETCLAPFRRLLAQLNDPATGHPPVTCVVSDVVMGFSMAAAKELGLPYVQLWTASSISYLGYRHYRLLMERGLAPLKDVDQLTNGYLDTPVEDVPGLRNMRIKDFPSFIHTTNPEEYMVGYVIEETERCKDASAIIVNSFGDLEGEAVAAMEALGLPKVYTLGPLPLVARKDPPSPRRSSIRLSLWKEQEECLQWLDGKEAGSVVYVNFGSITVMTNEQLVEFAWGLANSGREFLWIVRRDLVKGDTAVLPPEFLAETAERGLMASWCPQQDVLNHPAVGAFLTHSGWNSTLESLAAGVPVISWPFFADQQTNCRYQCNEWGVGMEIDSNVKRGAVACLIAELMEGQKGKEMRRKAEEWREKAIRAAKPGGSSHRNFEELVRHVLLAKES
The assay is described as follows: whole-cell conversion in E. coli, HPLC. The format is cell-based. Conditions: intracellular UDPG, pgm and galU overexpressed, 48 h.

Consider `OCCc1ccc(O)c(O)c1` [hydroxytyrosol], for which the “whole-cell conversion in E. coli, HPLC” value on UGT33 and at UGT13 was “all these enzymes could catalyze the synthesis of hydroxysalidroside” throughout.
